Source: US12454550B2, “Compositions and methods for bioorthogonal surface coating” (Rutgers, The State University of New Jersey, priority 2021, dated 2025)
Values after ≈ are worked out from the molar mass of the structure shown. Where two headings read alike, the source gives them in different places.

How the values were obtained:
[1] = Colorimetric assay using ALP on DOPA-Tet coated microcentrifuge tubes; format: biochemical; conditions: tubes coated with 10 mM DOPA-Tet, treated with enzyme and washed; 1 mg/mL p-NPP, 1 hour, room temperature
Procedure: For the colorimetric assay using ALP, TBS was chosen as the buffer for washing and testing, because the high concentration of phosphate in PBS could affect the phosphatase activity of ALP. TCO-conjugated ALP (ALP-TCO) was prepared as described elsewhere herein. 0.2 mL microcentrifuge tubes (Bio-Rad Laboratories) were coated with 10 mM DOPA-Tet. The tubes were washed thoroughly with TBS 7.5 and sonicated to remove any loose aggregates. The tubes were grafted with either 0.2 mM ALP-TCO or 0.2 mM ALP, both in TBS 7.5. 50 μL of 1 mg/mL p-NPP in TBS 8.5 was added to each tube and incubated at room temperature for 1 hour. Absorbance at 405 nm was measured on a spectrophotometer (NanoDrop One). Three replicates for each grafted molecule, ALP-TCO or ALP, were prepared and measured.

[2] = Stability of grafted enzymes after repeated use; format: biochemical; conditions: enzymes grafted on DOPA-Tet coated tubes, repeated substrate and buffer incubations with washes
Procedure: Eight 0.2 mL microcentrifuge tubes were coated with 50 μL of 10 mM DOPA-Tet. The tubes were washed thoroughly with TBS (pH 7.5). Three tubes each were grafted with 50 μL of either 0.1 mM ALP-TCO or 0.1 mM GOx-TCO and 0.1 mM HRP-TCO. The two remaining coated tubes were not grafted with any enzymes. The tubes were washed thoroughly with TBS (pH 7.5). 25 μL of 1 mg/mL p-NPP in TBS (pH 8.5) was added to the ALP-grafted tubes and 25 μL 1 mM ABTS and 1 mM D-glucose in PBS (pH 7.4) was added to the GOX/HRP grafted tubes. Each substrate solution was also added to one of the tubes that was not grafted (for controls). […] Absorbance at 405 nm was measured on a spectrophotometer (Thermo Scientific NanoDropOneC). All tubes were then thoroughly washed with TBS (pH 7.5). Then TBS (pH 8.5) was added to the ALP-grafted tubes and PBS (pH 7.4) was added to the GOX/HRP grafted tubes. Each buffer solution was also added to one of the tubes that was not grafted. […] The buffer solutions were then removed from the tubes. This process of incubating with substrate and then buffer solutions was repeated for all tubes 9 more times, for a total of 10 cycles.

[3] = Michaelis-Menten kinetics of native and TCO-conjugated ALP (UV-Vis, 405 nm); format: biochemical; conditions: 5 nM enzyme, p-NPP in TBS 8.5, room temperature
Procedure: Both assays produce an increase in absorbance at 405 nm, the evolution of which at room temperature was measured on a microplate reader (SpectraMax iD3) over 1 hour. […] These trials were omitted from data analysis. Velocities were estimated by linear regression, and Michaelis-Menten parameters were calculated using both Lineweaver-Burk plots and non-linear least squares regression. R-squared values for all regressions were above 0.95 with the vast majority being above 0.98.

S. aureus [4] = assay: Minimum Inhibitory Concentration (MIC) assay; format: cell-based; conditions: Staphylococcus aureus; in solution, 37° C., 18 to 24 h, n=3
Procedure: A glycerol stock of S. aureus was struck on a tryptic soy agar plate and incubated overnight at 37° C. Single colonies were then picked and diluted into tryptic soy broth (TSB) and left to grow overnight. Next, the culture was diluted approximately 40-fold into fresh TSB and grown to mid-log phase (OD600=0.4 to 0.8). 5 mg/mL stock solutions of Vancomycin-TCO and vancomycin in DMSO were serially diluted two-fold with TBS across the wells of a non-treated 96-well plate, with concentrations ranging from 0.0625 to 128 μg/mL. The mid-log phase cultures were diluted to a final concentration of 5×10^5 colony forming units (CFU)/mL in TSB then 50 μL was added to each antimicrobial-containing well, giving a final antimicrobial concentration range of 0.031 to 64 μg/mL. All the plates were covered and incubated at 37° C. for 18 to 24 h. The MIC was defined as the lowest compound concentration at which no bacterial growth was visible (n=3).

S. aureus biofilm [5] = assay: Biofilm crystal violet assay; format: cell-based; conditions: coated surfaces incubated with S. aureus for 72 hours
Procedure: 100 μL of freshly prepared coating solution containing 10 mM DOPATet and 2500 U/mL tyrosinase in PBS was added to the wells of a 96-well plate and incubated at room temperature for 6 hours. […] As described elsewhere herein, S. aureus was grown overnight in TSB, then diluted 1:100 in TSB containing 3% glucose. 300 μL of the dilute bacteria was added to the coated well plate, which was then incubated at 37° C. for 72 hours. After incubation the media was decanted, and the plate was air dried for 5 minutes. 200 μL of 0.9% NaCl in sterile water was gently added to the wells, then decanted, and air dried for 5 minutes. The wells were washed twice more with 0.9% NaCl, and after the final drying, 200 μL methanol was added to each well. The plate was left at room temperature for 15 minutes, then the methanol was decanted and the plate air dried for 5 minutes. 100 μL of 3% crystal violet in sterile water was added to the wells and incubated at room temperature for 20 minutes. The dye was decanted, and the plate air dried. The wells were washed three times with 0.9% NaCl as above. After the final air drying, 150 μL of methanol was added to the wells, and mixed to allow for dissolution of the crystal violet. The dye solution was then decanted and diluted 1:10 in methanol, then the absorbance at 590 nm was recorded.

[6] = Colorimetric assay using GOx/HRP on DOPA-Tet coated microcentrifuge tubes; format: biochemical; conditions: tubes coated with 10 mM DOPA-Tet, treated with enzymes and washed; 1 mM D-glucose and 1 mM ABTS, 1 hour
Procedure: TCO-conjugated GOx (GOx-TCO) and HRP (HRP-TCO) were prepared as described above. 0.2 mL microcentrifuge tubes were coated with 10 mM DOPA-Tet. The tubes were washed with PBS and sonicated to help remove any loose aggregates. The tubes were grafted with either 0.2 mM GOx-TCO and 0.2 mM HRP-TCO, or 0.2 mM GOx and 0.2 mM HRP. […] Absorbance at 405 nm was measured on a spectrophotometer (NanoDrop One). Three replicates of each set of enzymes, TCO-conjugated or native, were prepared and measured.

S. aureus biofilm [7] = assay: Biofilm microscopy (PI/SYTO 9, CLSM); format: cell-based; conditions: coated microscopy dishes, PI/SYTO 9 staining
Procedure: 200 μL of freshly prepared coating solution containing 10 mM DOPA-Tet and 2500 U/mL tyrosinase in PBS was added to a glass bottom culture dush. The dish was incubated at room temperature for 6 hours, during which a coating was formed. […] S. aureus was grown overnight in TSB, then diluted 1:100 in TSB containing 3% glucose. 300 μL of the dilute bacteria was added to the microscope dishes, which were then placed in a 37° C. incubator. The samples were incubated for 72 hours, with the media being topped up every day to account for evaporation. The media was decanted and then the dishes were washed with 200 μL of 0.9% NaCl, followed by a 1-hour incubation at room temperature with 250 μL of TSB containing Syto9 (10 μM) and PI (10 μM). The dyes were then decanted and the samples were washed again with saline. Finally, 150 μL of HBSS was added, and the dishes were imaged on a Leica SP8 confocal microscope.

S. aureus [8] = assay: Planktonic bacterial growth inhibition at the surface (PrestoBlue); format: cell-based; conditions: coated 96-well plate, incubated overnight, resazurin readout
Procedure: The wells of a non-treated clear 96 well culture plate were either left uncoated or coated with 10 mM DOPA-Tet and then incubated with either vancomycin-TCO, vancomycin, or PBS. […] 100 μL of culture was added to the wells and the plate was covered and incubated at 37° C. for 18 hours, after which 10 μL of PrestoBlue™ was added to each well. After 1 hour incubation, the media was transferred to clean wells and absorbance at 570 nm was recorded using a plate reader.

[9] = Coating stability in human serum, ALP activity on p-NPP afterwards; format: biochemical; conditions: DOPA-Tet coated glass vial, 5 days at 37° C. in human serum, then 1 mg/mL p-NPP 1 hour
Procedure: Two additional 4 mL glass vials were prepared and incubated in human serum. Both samples were coated with 10 mM DOPA-Tet, and one was grafted with 0.2 mM ALP-TCO. Both samples were incubated in 1 mL of human serum from clotted whole blood (Millipore-Sigma) for 5 days at 37° C. After incubation, both samples were washed with PBS and 1 mL of 1 mg/mL p-NPP was added. After incubation for 1 hour at room temperature, both samples were imaged and their absorbance at 405 nm was measured on a spectrophotometer (NanoDrop One).

[10] = Coating stability at various pH; format: physicochemical; conditions: coated glass vials, 5 days at 37° C.
Procedure: Six 4 mL glass vials (VWR International) were coated with 10 mM DOPA-Tet and incubated for 5 days at 37° C. in 1 mL of either 50 mM MES pH 4.5 (Millipore-Sigma), 100 mM IVIES pH 6.0, PBS, TBS 8.5, 100 mM NaHCO3 pH 9.5 (Millipore-Sigma) or 10% DMSO (Millipore-Sigma) in PBS. After incubation, samples were rinsed with Milli-Q water, dried, and imaged.

Compound	activity (absorbance at 405 nm) [1] [OD]	loss of activity on repeated use (absorbance at 405 nm) [2]	Km ([3]; Lineweaver-Burk plots, read-out: Km by LB) [µM]	Km ([3]; non-linear least squares regression, read-out: Km by nls) [µM]	MIC (S. aureus [4]) [µg/mL]	biofilm formation (crystal violet, absorbance at 590 nm) (S. aureus biofilm [5])	activity (absorbance at 405 nm) [6] [OD]	biofilm formation (CLSM) (S. aureus biofilm [7])	growth of S. aureus (planktonic) (S. aureus [8])	ALP activity on p-NPP after incubation in human serum [9]	coating stability ([10]; 10% DMSO in PBS)	coating stability ([10]; buffered from pH 4.5 to 8.5)	coating stability ([10]; pH 9.5)
ALP: alkaline phosphatase, native enzyme (SEQ ID NO:2)	1.66	little loss of activity over 10 cycles	281	207	–	–	–	–	–	–	–	–	–
CN[C@H](CC(C)C)C(=O)N[C@H]1C(=O)N[C@@H](CC(N)=O)C(=O)N[C@H]2C(=O)N[C@H]3C(=O)N[C@H](C(=O)N[C@H](C(=O)NCCOCCOCCOCCOCCOCCOCCOCCOCCNC(=O)OC4CC/C=C/CCC4)c4cc(O)cc(O)c4-c4cc3ccc4O)[C@H](O)c3ccc(c(Cl)c3)Oc3cc2cc(c3O[C@@H]2O[C@H](CO)[C@@H](O)[C@H](O)[C@H]2O[C@H]2C[C@](C)(N)[C@H](O)[C@H](C)O2)Oc2ccc(cc2Cl)[C@H]1O (some centres unmarked) [vancomycin-TCO]	–	–	–	–	16 (≈ 8.02 µM)	–	–	–	–	–	–	–	–
Cc1nnc(-c2ccc(OCCOCCOCCOCCNC(=O)C(N)Cc3ccc(O)c(O)c3)cc2)nn1 (racemic) [DOPA-Tet, (±)-2-amino-3-(3,4-dihydroxyphenyl)-N-(2-(2-(2-(2-(4-(6-methyl-1,2,4,5-tetrazin-3-yl)phenoxy)ethoxy)ethoxy)ethoxy)ethyl)propanamide]	0.05	–	–	–	–	successfully inhibited biofilm formation	−0.07	no biofilm was observed	not antimicrobial	did not show any visually detectable activity	slightly solubilized	No degradation of the coating was observed	delamination and degradation of the coating were observed
